Among the data in article PMC7998658, “Phloridzin Acts as an Inhibitor of Protein-Tyrosine Phosphatase MEG2 Relevant to Insulin Resistance” (Molecules, 2021) are Kd and Km values, retold here.

As a reminder, the Kd is the constant that tells how readily two partners part at equilibrium. Read a high Kd as a looser complex. For orientation: Km means the substrate concentration at which the rate is half of its maximum.

The target in data set [1] is T1, PTP-MEG2 (megakaryocyte protein tyrosine phosphatase 2, PTPN9) (Homo sapiens, UniProt P43378).
T1 sequence (P43378 1-593): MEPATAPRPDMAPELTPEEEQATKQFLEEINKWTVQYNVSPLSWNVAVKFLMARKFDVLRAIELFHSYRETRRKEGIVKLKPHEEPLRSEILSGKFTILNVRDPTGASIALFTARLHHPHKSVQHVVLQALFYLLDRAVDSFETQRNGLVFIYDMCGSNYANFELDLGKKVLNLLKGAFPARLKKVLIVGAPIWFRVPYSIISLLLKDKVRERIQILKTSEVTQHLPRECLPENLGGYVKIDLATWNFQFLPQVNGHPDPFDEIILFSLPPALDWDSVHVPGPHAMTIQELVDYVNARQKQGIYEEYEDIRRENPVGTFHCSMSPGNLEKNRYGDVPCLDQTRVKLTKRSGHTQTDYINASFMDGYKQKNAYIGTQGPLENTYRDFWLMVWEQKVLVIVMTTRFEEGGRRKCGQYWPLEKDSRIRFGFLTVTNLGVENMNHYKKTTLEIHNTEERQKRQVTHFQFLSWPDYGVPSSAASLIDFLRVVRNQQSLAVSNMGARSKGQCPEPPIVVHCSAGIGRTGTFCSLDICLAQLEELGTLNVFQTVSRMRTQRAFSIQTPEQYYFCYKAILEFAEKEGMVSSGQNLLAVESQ
The data set can be described thus: SPR on immobilized purified PTP-MEG2; also DiFMUP enzyme inhibition, IC50 =[…], slow-binding.

Substrate in data set [2]: Cc1cc(=O)oc2c(F)c(OP(=O)(O)O)c(F)cc12
Kind of data set: fluorogenic substrate hydrolysis by purified enzyme; Km from Lineweaver-Burk plots. Format: biochemical, Homo sapiens. On the procedure:
fluorogenic substrate hydrolysis by purified enzyme; Km from Lineweaver-Burk plots on PTP-MEG2 (megakaryocyte protein tyrosine phosphatase 2, PTPN9) | kinetic constants of PTP-MEG2 were determined using DiFMUP as a fluorogenic PTP substrate

Molecule `O=C(CCc1ccc(O)cc1)c1c(O)cc(O)cc1O[C@@H]1O[C@H](CO)[C@@H](O)[C@H](O)[C@H]1O` [phloridzin] yielded a dissociation constant Kd in data set [1] of 4.66 µM.

B1: PTP-MEG2 (megakaryocyte protein tyrosine phosphatase 2, PTPN9) (Homo sapiens) (protein)
chain: T1 sequence (P43378 1-593)
Turning to B1, the Km in data set [2] is given as 163.1 µM.
